The supplement of paper PMC10307832

Key:
Experiment in all cases: relative viability (nuclei count vs DMSO), 5 days (fraction); higher = more cells survive
TPCA-1 + Tozasertib = compound: C1=CC(=CC=C1C2=CC(=C(S2)NC(=O)N)C(=O)N)F [TPCA-1] + Cc1cc(Nc2cc(N3CCN(C)CC3)nc(Sc3ccc(NC(=O)C4CC4)cc3)n2)n[nH]1 [Tozasertib] (partner 0.1 µM)
Outline: (§1)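 Dosing by pin tool came one day after lung cancer cell lines were seeded in 1536-well plates, using either one drug or a fixed anchor-drug dose plus five library-drug doses (not always all listed) in √10 steps. After 5 days, nuclei were counted on 4× images. Relative viability is treated-well nuclei count divided by vehicle-well nuclei count, and values are medians of duplicate plates.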

Lestaurtinib + AZD7762 = compound: C[C@]12O[C@H](C[C@]1(O)CO)n1c3ccccc3c3c4c(c5c6ccccc6n2c5c31)CNC4=O [Lestaurtinib] + NC(=O)Nc1cc(-c2cccc(F)c2)sc1C(=O)N[C@H]1CCCNC1 [AZD7762] (partner 0.2 µM)
Outline: as §1

TPCA-1 + Luminespib = compound: C1=CC(=CC=C1C2=CC(=C(S2)NC(=O)N)C(=O)N)F [TPCA-1] + CCNC(=O)c1noc(-c2cc(C(C)C)c(O)cc2O)c1-c1ccc(CN2CCOCC2)cc1 [Luminespib] (partner 0.01 µM)
Outline: as §1

[1] = compound: C1/C(=C\C2=CC=CS2)/C(=O)/C(=C/C3=CC=CS3)/C1 + Cc1cc(Nc2cc(N3CCN(C)CC3)nc(Sc3ccc(NC(=O)C4CC4)cc3)n2)n[nH]1 [Tozasertib] (partner 0.1 µM)
Outline: as §1

Row | Cell Line | relative viability (TPCA-1 + Tozasertib; first compound 0.04 µM) | relative viability (TPCA-1 + Tozasertib; first compound 0.1265 µM) | relative viability (TPCA-1 + Tozasertib; first compound 0.4 µM) | relative viability (TPCA-1 + Tozasertib; first compound 1.265 µM) | relative viability (TPCA-1 + Tozasertib; first compound 4 µM) | relative viability (Lestaurtinib + AZD7762; first compound 0.005 µM) | relative viability (Lestaurtinib + AZD7762; first compound 0.01581 µM) | relative viability (Lestaurtinib + AZD7762; first compound 0.05 µM) | relative viability (Lestaurtinib + AZD7762; first compound 0.1581 µM) | relative viability (Lestaurtinib + AZD7762; first compound 0.5 µM) | relative viability (TPCA-1 + Luminespib; first compound 0.04 µM) | relative viability (TPCA-1 + Luminespib; first compound 0.1265 µM) | relative viability (TPCA-1 + Luminespib; first compound 0.4 µM) | relative viability (TPCA-1 + Luminespib; first compound 1.265 µM) | relative viability (TPCA-1 + Luminespib; first compound 4 µM) | relative viability ([1]; first compound 0.2 µM) | relative viability ([1]; first compound 0.6325 µM) | relative viability ([1]; first compound 2 µM) | relative viability ([1]; first compound 6.325 µM) | relative viability ([1]; first compound 20 µM)
1 | NCI-H460 | 0.473 | 0.69 | 0.419 | 0.448 | 0.0397 | 0.651 | 0.765 | 0.757 | 1.31 | 0.645 | 0.0339 | 0.0348 | 0.0261 | 0.0343 | 0.0263 | 0.377 | 0.438 | 0.401 | 0.323 | 0.321
2 | NCI-H1755 | 0.57 | 0.526 | 0.52 | 0.511 | 0.374 | 0.437 | 0.401 | 0.492 | 0.344 | 0.25 | 0.596 | 0.408 | 0.357 | 0.35 | 0.418 | 0.64 | 0.583 | 0.582 | 0.539 | 0.549
3 | NCI-H358 | 0.126 | 0.113 | 0.108 | 0.105 | 0.0839 | 0.485 | 0.413 | 0.432 | 0.298 | 0.253 | 0.286 | 0.366 | 0.279 | 0.266 | 0.125 | 0.101 | 0.096 | 0.112 |  | 0.11
4 | NCI-H1734 | 0.272 | 0.29 | 0.266 | 0.264 | 0.264 | 0.502 | 0.512 | 0.447 | 0.326 | 0.18 | 0.192 | 0.201 | 0.221 | 0.19 | 0.162 | 0.282 | 0.293 | 0.263 | 0.167 | 0.287
5 | EPLC-272H | 0.652 | 0.277 | 0.31 | 0.442 | 0.251 | 0.153 | 0.219 | 0.119 | 0.225 | 0.27 | 0.265 | 0.262 | 0.443 | 0.38 | 0.207 | 0.293 | 0.325 | 0.322 | 0.283 | 0.287
6 | NCI-H2126 | 0.877 | 0.768 | 0.886 | 0.829 | 0.338 | 1.04 | 1.01 | 0.877 | 0.988 | 0.813 | 0.94 | 0.947 | 0.984 | 0.797 | 0.676 | 0.888 | 0.831 | 0.878 | 0.814 | 0.798
